As usually defined, the viability is a read-out of living cells in per cent, often relative to untreated cells.

Molecules are shown by their SMILES.

This data set can be described thus: in vitro. Conditions: human, hela cells, % viability.

In the case of `Cn1nc(C(C)(C)C)cc1NC(=O)CN1CCc2cncnc2C1` [CBK304934], the viability at 28.5 h, 10 µM stood at 106%. Next, `COc1ccc(CC(=O)N(C)Cc2nnc3ccccn23)cc1` [CBK304935]: 87.8%; `Cc1ccc(Cl)c(OC(C)C(=O)N2CCCC(C(N)=O)C2)c1` (centres unmarked) [CBK304936]: 99.3%. The figure for `CC(C)Cn1ncc2cc(C(=O)Nc3ccnn3C(C)C)cnc21` [CBK304938] is 79%; for `CC(C)NC(=O)CN(CCO)Cc1cc(Br)ccc1F` [CBK304944] it is 90.7%; for `Cn1c(=O)c2c(ncn2Cc2noc(-c3ccoc3)n2)n(C)c1=O` [CBK304945] it is 86.3%. Next, `CN(C(=O)C1CC1)C1CCN(c2ncnc3ccccc23)CC1` [CBK304946]: 80%; `Cc1nc(-c2cccnc2)[nH]c(=O)c1CC(=O)N1CCN(C)CC1C` (centres unmarked) [CBK304950]: 100%. As for `O=C(Nc1ncn(CC(=O)N2CCCCCC2)n1)c1cccs1` [CBK304953], the viability at 28.5 h, 10 µM was 78.1%. The figure for `Cc1cccc(C(=O)Nc2ncn(CC(=O)N3CCCCCC3)n2)n1` [CBK304954] is 86.6%; for `Cc1nnc2n1CCN(C(=O)CC1OCCc3sccc31)C2` (centres unmarked) [CBK304956] it is 94%; for `COc1ccc(CCC(=O)Nc2ncccc2OCCCC#N)cc1` [CBK304957] it is 105%.

Consider `CCn1c(CN2CCC(c3noc(C)n3)CC2)nc2c(F)cccc21` [CBK304960], for which the viability at 28.5 h, 10 µM worked out at 91.1%. As to `Cc1nn(C)c(C)c1NC(=O)COc1ccc2c(c1)CCCC2=O` [CBK304963], the viability at 28.5 h, 10 µM came to 98.5%. The figure for `Cc1ccc(C)c(CC(=O)N(C)C2CCN(C3CCOCC3)CC2)c1` [CBK304964] is 87.4%.

With `CCCC(C)N(C)C(=O)CCc1c(C)nc(-c2cccnc2)[nH]c1=O` (centres unmarked) [CBK304965], the viability at 28.5 h, 10 µM was determined as 106%. For the molecule `Cc1cccn2cc(CC(=O)OCC(=O)NC(C)(C)C)nc12` [CBK304966], the viability at 28.5 h, 10 µM stood at 110%. The figure for `COc1ccc(C)cc1C1(CNC(=O)C2CCC(=O)N2)CCOCC1` (centres unmarked) [CBK304967] is 94.8%; for `c1cnn(CC2CCCN2c2ncnc3sccc23)c1` (centres unmarked) [CBK304968] it is 92.5%. For `c1cnn(CC2CCCCN2c2ncnc3sccc23)c1` (centres unmarked) [CBK304969], the viability at 28.5 h, 10 µM was 92.1%. On to `CC(O)CN1CCN(c2nc(-c3ccncc3)nc3c2CCC3)CC1` (centres unmarked) [CBK304971], for which the viability at 28.5 h, 10 µM stood at 90.3%.

For the molecule `NC(=O)N1CCC(C(=O)N2CC3(CCCC3)c3c(F)cccc32)CC1` [CBK304973], the viability at 28.5 h, 10 µM is 108%.

On to `O=C(Nc1ncn(CC(=O)N2CCCCCC2)n1)c1ccsc1` [CBK304974], for which the viability at 28.5 h, 10 µM is 99.4%. Next, `CC1CCc2c(sc3ncnc(OCC(=O)N(C)CCC#N)c23)C1` (centres unmarked) [CBK304976]: 89.8%. The figure for `COC(=O)C1CCN(Cc2nc3sc4c(c3c(=O)[nH]2)CCC(C)C4)CC1` (centres unmarked) [CBK304978] is 99.2%; for `CC1CCc2c(sc3ncnc(OCC(=O)N4CCCCC4)c23)C1` (centres unmarked) [CBK304979] it is 87.5%; for `CC(C)CNS(=O)(=O)c1ccc(N2CCCC2=O)cc1` [CBK304981] it is 106%. The figure for `COC(=O)c1cc(C#N)c(=O)n(CC(O)COc2cccc(Br)c2)c1` (centres unmarked) [CBK304984] is 80.5%.

For the molecule `Cc1nc2nc(N)nn2c(C)c1CCC(=O)NCc1ccccc1` [CBK304986], the viability at 28.5 h, 10 µM stood at 95.7%. The figure for `Cc1ccccc1CNC(=O)CCc1c(C)nc2nc(N)nn2c1C` [CBK304987] is 108%; for `COCCN(C(=O)CSc1ccc2ccccc2n1)C1CCS(=O)(=O)C1` (centres unmarked) [CBK304988] it is 96.4%.

`Cc1nc2nc(N)nn2c(C)c1CCC(=O)NCCc1ccccc1` [CBK304989]: the viability at 28.5 h, 10 µM amounted to 89.5%. The figure for `COC(=O)c1cc(C#N)c(=O)n(CC(O)COc2ccccc2)c1` (centres unmarked) [CBK304991] is 99.3%. Next, `Cc1ccccc1CCNC(=O)CCc1c(C)nc2nc(N)nn2c1C` [CBK304994]: 93.6%. The figure for `CCN1CCC(NC(=O)CSc2nc3ccccc3n2CC(C)C)CC1` [CBK304995] is 106%; for `Cc1ccnc2nc(C(=O)OC(C)C(=O)NC3CC3)nn12` (centres unmarked) [CBK304998] it is 92.5%.

On to `CC1c2ccsc2CCN1C(=O)COc1ccc(Br)cc1` (centres unmarked) [CBK304999], for which the viability at 28.5 h, 10 µM was determined as 98%.

With `CC1CC(C)CN(C(=O)c2cc(S(=O)(=O)N3CCOCC3)ccc2Cl)C1` (centres unmarked) [CBK305000], the viability at 28.5 h, 10 µM amounted to 87%. Turning to `Cc1nc(N2CCOCC2)[nH]c(=O)c1CCC(=O)Nc1ccccc1F` [CBK305003], the viability at 28.5 h, 10 µM was 97.7%.

For `O=C(c1cc(S(=O)(=O)NCc2ccco2)c(Cl)cc1Cl)N1CCC1` [CBK305004], the viability at 28.5 h, 10 µM is 98%.

Regarding `CCC1CCC2(CC1)NC(=O)N(Cc1nc(-c3cccs3)no1)C2=O` (centres unmarked) [CBK305005], the viability at 28.5 h, 10 µM was found to be 92.6%. Next, `CCn1cc(C(=O)N2CCc3sccc3C2)c(=O)c2ccc(C)nc21` [CBK305006]: 94.3%.

As for `CC1CCc2c(sc3ncnc(NC4CCN(CC(N)=O)CC4)c23)C1` (centres unmarked) [CBK305008], the viability at 28.5 h, 10 µM was determined as 91.7%. The figure for `CSc1ncccc1C(=O)NCc1ccc(NC(C)=O)cc1` [CBK305009] is 97%; for `CC(=O)Nc1ccc(CNC(=O)c2ccoc2C)cc1` [CBK305010] it is 114%. The figure for `Cc1ccc(Cc2cnc(NC(=O)C3CCCO3)s2)cc1Cl` (centres unmarked) [CBK305013] is 96%; for `O=C(CSc1nnc(C2CC2)o1)Nc1ccc(CN2CCOCC2)cc1` [CBK305015] it is 86%.

As to `Cc1csc(NC(=O)c2cccc(S(=O)(=O)NCC3CCCO3)c2)n1` (centres unmarked) [CBK305017], the viability at 28.5 h, 10 µM was found to be 96.7%. The figure for `CCCn1c(SC(C)C(=O)N2CCOCC2)nc2ccc(Br)cc2c1=O` (centres unmarked) [CBK305020] is 92.2%; for `CCNC(=O)C(C)NC(=O)c1cnn(-c2ccc(Br)cc2)c1C` (centres unmarked) [CBK305021] it is 79.3%; for `CCc1ccc(C(=O)C(C)OC(=O)c2nc3nc(C)cc(C)n3n2)cc1` (centres unmarked) [CBK305023] it is 87.7%.

On to `Cc1nc(C)c(CCC(=O)Nc2cccc(F)c2)c(=O)[nH]1` [CBK305026], for which the viability at 28.5 h, 10 µM is 90.3%. The figure for `O=C(NCc1cccnc1)c1csc2c1CCCC2` [CBK305029] is 86.4%. Consider `CCCc1cc(O)nc(SC(C)C(=O)N2CCOCC2)n1` (centres unmarked) [CBK305030], for which the viability at 28.5 h, 10 µM came out at 86%.

Turning to `CCC(C)NC(=O)CN1CCN(Cn2nnc3ccccc3c2=O)CC1` (centres unmarked) [CBK305032], the viability at 28.5 h, 10 µM was 100%.

Regarding `COCCNC(=O)c1cc(-c2ccc(C)cc2)nc2c1cnn2C(C)C` [CBK305033], the viability at 28.5 h, 10 µM came to 93.8%. Next, `C#CCNC(=O)N1CCC(c2c[nH]c3ccccc23)CC1` [CBK305034]: 87.4%; `CCCCN(CC)S(=O)(=O)c1ccc(-n2ncc(Cl)c(Cl)c2=O)cc1` [CBK305036]: 6.38%.

Consider `Cc1cccc(C(=O)N2CCN(Cc3cc(=O)n4ccsc4n3)CC2)c1` [CBK305037], for which the viability at 28.5 h, 10 µM worked out at 91%.

Source of the values: publication PMC12040169 (PLOS Biology, 2025).
